{
  "source": "patent US11786507B2",
  "about": "“Methods of treating HIV-associated neurological disorders (HAND)” (priority 2020, dated 2023)",
  "key": {"MAPK signaling pathways": {"system": "MAPK signaling pathways", "assay": "Western blotting of total and phosphorylated p38, JNK, ERK in cortex and hippocampus", "format": "in vivo, mouse", "conditions": "PAM 15 mg/kg/day s.c.", "source_text": "(§1) Doxycycline (Dox)-inducible and astrocyte-specific HIV-1 Tat-transgenic mice (iTat) were generated as previously described.^38 Wild-type (Wt, C57BL/6) and α7 nAChR knockout mice (α7^−/−, B6.129S7-Chrna^7tm1Ba/J) were purchased from the Jackson Laboratory (Bar Harbor, ME). All the animal procedures were approved by the Institutional Animal Care and Use Committee. Mice were housed with a 12-hour light and 12-hour dark photoperiod and provided water and food ad libitum. α7^−/− iTat mice were generated by cross breeding iTat mice with α7^−/− mice. α7^−/− genotyping was slightly modified with the JumpStart™ Taq DNA Polymerase-based PCR (JumpStart™ Taq DNA Polymerase, Sigma, catalog #D9307). […] Mice of 10-14 weeks old with body weights of 20-35 grams were fed with Dox-containing diet (0.625 g/kg, Envigo, catalog #TD.01306) as stated.\nA RIPA buffer (50 mM Tris.HCl, pH 8.0, 280 mM NaCl, 0.5% NP-40, 1% C24H39NaO4, 0.2 mM EDTA, 2 mM EGTA and 10% glycerol) supplemented with protease inhibitors (Millipore-Sigma, catalog #S8830) and phosphatase inhibitors (Millipore-Sigma, catalog #4906845001) was used to lyse the brain tissues and cultured cells with brief sonication on ice. Protein concentrations of the lysates were determined using a Bio-Rad DC protein assay kit (Bio-Rad, catalog #5000111). Lysates were denatured in the SDS-PAGE loading buffer at 100° C. for 10 min, then electrophoretically separated by 8-15% SDS-PAGE, blotted onto 0.45 μm polyvinylidene fluoride membrane (GE Healthcare Life Sciences, catalog #10600023), and probed using appropriate antibodies against PSD-95 (Abcam, catalog #ab18258, and 1:2000 dilution), SYP (Abcam, catalog #ab8049, and 1:1000 dilution), Iba-1 (Wako, catalog #016-20001, and 1:500 dilution) and GFAP (DAKO, catalog #z330s, and 1:2000 dilution), p-p38 (Santa Cruz, catalog #sc-166182, and 1:1000 dilution), p38 (Santa cruz, catalog #sc-535, and 1:1000 dilution), p-JNK (Santa cruz, catalog #sc-6254, and 1:1000 dilution), JNK (Santa cruz, catalog #sc-571, and 1:1000 dilution), p-ERK (Santa cruz, catalog #sc-7383, and 1:1000 dilution), and ERK (Santa cruz, catalog #sc-514302, and 1:1000 dilution), α7 nAChR (Alomone, catalog #ANC-007, and 1:1000 dilution) and β-actin (Sigma-Aldrich, catalog #A1978, and 1:2000 dilution). A Bio-Rad ChemicDoc imaging system (Bio-Rad) and Image J were used for image capturing and analysis, respectively.\nIt was next determined which MAPK signaling pathways were responsive to PAM neuroprotective effects against Tat-induced neuropathologies. Both CORT and HIP were analyzed for expression and phosphorylation of p38, JNK, and ERK."}, "α7 nAChR": {"system": "α7 nAChR", "assay": "α7 nAChR expression in brain tissue (Western blotting, immunofluorescence)", "format": "in vivo, mouse", "experimental": "FIG. 11A-FIG. 11E show the α7 nAChR expression in the brain, cortical neurons, microglia, and astrocytes in response to Tat and PAM. Western blotting was performed in the same samples of FIG. 1D (FIG. 11A & FIG. 11B, mouse brain tissue, n=6/group, three males, and three females) and FIG. 4A (FIG. 11D & FIG. 11E, primary cells, and n=3/group) using an anti-α7 nAChR antibody. Immunofluorescent staining (FIG. 11C, scale bars 20 μm) of the brain tissues was also performed using an anti-α7 nAChR antibody. p<0.05 was considered significant and marked as *; p<0.01 and p<0.001 were both considered highly significant and marked as ** and ***, respectively.\nA RIPA buffer (50 mM Tris.HCl, pH 8.0, 280 mM NaCl, 0.5% NP-40, 1% C24H39NaO4, 0.2 mM EDTA, 2 mM EGTA and 10% glycerol) supplemented with protease inhibitors (Millipore-Sigma, catalog #S8830) and phosphatase inhibitors (Millipore-Sigma, catalog #4906845001) was used to lyse the brain tissues and cultured cells with brief sonication on ice. Protein concentrations of the lysates were determined using a Bio-Rad DC protein assay kit (Bio-Rad, catalog #5000111). […]"}, "iTat mice": {"system": "iTat mice", "assay": "Open Field Test (OPT), locomotor activity", "format": "in vivo, mouse", "conditions": "PAM 15 mg/kg/day s.c. vs DMSO", "source_text": "as §1\nOpen Field Test (OPT) and Morris Water Maze (MWZ) were performed sequentially using a computerized video tracking system (Anymaze, Stoelting) to determine the spontaneous locomotor activity and spatial learning and memory, respectively. For OPT, each mouse was allowed to move freely around a clear acrylic chamber (40.5×40.5×30.5 cm) for 10 minutes. Travel distance and maximum speed was determined by the AnyMaze software. For MWZ, a circle pool (1.2 m diameter) surrounded with a curtain was divided into four equal quadrants, and four signs with different shape were fixed onto the middle of each quadrant wall above the opaque water (24±1° C.). A hidden platform (1.5 cm below water surface) was put into a certain quadrant. Two stages consisting of 5-day training and probe test were carried out. In the training stage, four trials with a 15-20 minute interval were conducted in the every-day training, and for each trial mice were allowed to freely seek the platform within 90 seconds right after they were randomly put into one quadrant facing to the pool wall. If the mice found the platform within 90 seconds, 10 seconds would be added to allow them staying on the platform for memorizing, however, if failed, they would be directed toward the platform and allowed to stay on it for 15 seconds. Mice that were immobile or floating and unable to find the platform during the training stages were excluded from the experiments. Probe test was carried out on the next day following the 5-day training stage with a 60 seconds trial, and the platform was removed to prevent the mice from climbing onto it during the testing. One day after the behavioral tests, mice were euthanized and the brains were harvested.\nTo determine if α7 nAChR is involved in HAND, iTat mice were fed with Dox-containing food pellets for 7 days, injected s.c. with a well-studied and highly specific positive allosteric modulator (PAM) PNU-120596 of α7 nAChR^73,74 […], and then subjected to open field test (OPT) for locomotor activity on day 14, and Morris Water Maze test (MWZ) for learning and spatial memory on day 15-20, and euthanized to harvest tissues on day 21 (FIG. 1A). Dox-containing food pellet feeding and PAM injection continued during the next 7 days of behavioral tests. To minimize the effects of injection on behavioral tests, PAM was injected 5 hours after each behavioral test."}, "α7−/−iTat mice": {"system": "α7−/−iTat mice", "assay": "PAM neuroprotection in α7 nAChR knockout iTat mice", "conditions": "mouse, in vivo", "source_text": "as §1\nOpen Field Test (OPT) and Morris Water Maze (MWZ) were performed sequentially using a computerized video tracking system (Anymaze, Stoelting) to determine the spontaneous locomotor activity and spatial learning and memory, respectively. For OPT, each mouse was allowed to move freely around a clear acrylic chamber (40.5×40.5×30.5 cm) for 10 minutes. Travel distance and maximum speed was determined by the AnyMaze software. […]"}},
  "data": [
    {"molecule": "COc1cc(OC)c(NC(=O)Nc2cc(C)on2)cc1Cl", "note": "[PAM, 1-(5-chloro-2,4-dimethoxy-phenyl)-3-(5-methyl-isoxazol-3-yl)-urea]", "values": [
      {"measurement": "p38 and p-p38α", "setting": "MAPK signaling pathways; CORT and HIP", "value": "increases of both p38 and p-p38α in both CORT and HIP"},
      {"measurement": "p-ERK", "setting": "MAPK signaling pathways; CORT and HIP, iTat and Wt mice", "value": "no differences of p-ERK in CORT and HIP of both iTat and Wt mice"},
      {"measurement": "JNK", "setting": "MAPK signaling pathways; CORT, Wt and iTat mice", "value": "increases of JNK in CORT of Wt mice, increases of JNK in CORT of iTat mice"},
      {"measurement": "p-JNK", "setting": "MAPK signaling pathways; CORT, all mice", "value": "no differences of p-JNK in CORT of all mice"},
      {"measurement": "JNK and p-JNK", "setting": "MAPK signaling pathways; HIP, all mice", "value": "increases of JNK and p-JNK in HIP of all mice"},
      {"measurement": "ERK", "setting": "MAPK signaling pathways; HIP, iTat mice", "value": "decreases of ERK in HIP of iTat mice"},
      {"measurement": "α7 nAChR expression", "setting": "α7 nAChR; cortex of iTat mice", "value": "increased in cortex"},
      {"measurement": "α7 nAChR expression", "setting": "α7 nAChR; hippocampus of iTat mice", "value": "only decreased in hippocampus by both Tat expression and PAM treatment"},
      {"measurement": "OPT maximum speed", "setting": "iTat mice; Wt and iTat mice", "value": "increases of the maximum speed of male Wt mice but not other mice"},
      {"measurement": "OPT total travel distance", "setting": "iTat mice; Wt mice", "value": "some improvement of the travel distance of Wt mice"},
      {"measurement": "OPT total travel distance", "setting": "iTat mice; iTat mice", "value": "improvement of the travel distance of iTat mice"},
      {"measurement": "Neuroprotective effects against locomotor, learning and memory deficits", "setting": "α7−/−iTat mice", "value": "abolished"}
    ]}
  ]
}
